According to patent US5510261A, “Method of controlling the degradation of glycoprotein oligosaccharides produced by cultured Chinese hamster ovary cells” (The Board of Trustees of the Leland Stanford Juniot …, priority 1995, dated 1996):

System: neuraminidase present in CHO cell supernatant
Experiment: Inhibition of CHO neuraminidase activity, 4MU-NANA artificial substrate assay
Assay type: biochemical, Chinese hamster
Experimental: The artificial substrate 2'-(4-methylumbelliferyl)-α-D-N-acetylneuraminic acid (4MU-NANA) was used to assay for neuraminidase activity (modified from Potier et al., Anal. Biochem., 1979, 94, 287). The standard assay for lysate neuraminidase activity contained 0.1M sodium acetate (pH 3-6) or potassium phosphate (pH 6-8) buffer (10 μl of 1 M stock), 1 mM 4MU-NANA (25 μl from a 4 mM aliquot), and the lysate of 0.25 million cells ([…]) in a total volume of 100 μl. Supernatant samples were assayed identically, with supernatant replacing the added cell lysate. The 100 μl samples in plastic 1.5 ml tubes were placed in a 37° C. water bath with a shaker for 30 minutes (sometimes 60 minutes), and the reaction was stopped with 0.9 ml of 0.2M glycine (pH 10.4). […] An HP 1090 Series II HPLC coupled to an HP 1046A flow through fluorescence detector (Hewlett-Packard) was used for automated sample injection and analysis (no column). […] The fluorescence was integrated vs. time and compared to standard 4-methylumbelliferyl dilutions. […]
Aliquots of previously frozen and disrupted cells were thawed to 37° C. and assayed for neuraminidase activity as in the standard assay except the 4MU-NANA concentration varied at 0.1, 0.2, 0.4, 1 and 2 mM (pH 4.5, 5.5, 6.5 and 7.5). […] Kinetic parameters were determined by fitting an integrated form of the Michaelis-Menton equation: […]

Compound | inhibition of the neuraminidase present in CHO cell supernatant
CC(=O)N[C@H]1[C@H]([C@H](O)[C@H](O)CO)OC(C(=O)O)=C[C@@H]1O [2,3-D, 2,3-dehydro-2-deoxy-N-acetylneuraminic acid] | shown to inhibit
CC(=O)N[C@H]1[C@H]([C@H](O)[C@H](O)CO)OC(O)(C(=O)O)C[C@@H]1O (some centres unmarked) [NANA, N-acetylneuraminicacid] | shown to inhibit
